{"source": "patent US8481005B2", "about": "“Methods to prevent cytotoxicity using N-acetyl-cysteine” (priority 2006, dated 2013)", "assay_type_in_all_cases": "cell-based", "key": {"PBMCs": {"system": "PBMCs", "experiment": "PBMCs treated with HEMA or CDDP, FITC-Annexin V and PI", "details": "about 18 hours, highest concentration of CDDP, HEMA 0.0164M-0.00164M", "description": "The cells were then stained with FITC-Annexin V and PI according to the manufacturer's protocol."}, "active caspase 3": {"system": "active caspase 3", "experiment": "Active caspase 3 staining in PBMCs treated with HEMA or CDDP", "details": "HEMA 0.0164M, CDDP"}, "[1]": {"system": "dental pulp stromal cells", "experiment": "Cell death of rat dental pulp stromal cells with ascorbic acid", "details": "overnight incubation; FITC Annexin V and PI", "protocol": "Rat dental pulp stromal cells were next treated with HEMA in the presence and absence of another antioxidant, ascorbic acid. After an overnight incubation following procedures similar to those described above, levels of cell death were determined using FITC Annexin V and PI. […] Role of Cell Differentiation Studies"}, "Caspase 3": {"system": "Caspase 3", "experiment": "Full length caspase 3 in keratinocytes", "details": "about 8 hours, NAC 20 mM", "description": "Roles of NFkB and GAPDH in HEMA-Mediated Cell Death"}, "[2]": {"system": "human dental pulp stromal cells", "experiment": "VEGF by ELISA, human dental pulp stromal cells, NAC versus vitamin E (Table 5)", "details": "4 hours", "protocol": "(§1) Following the 4 hour incubation, cells were analyzed for apoptosis using FTIC-Annexin V and PI.\nDental pulp stromal cells were then treated as described in the preceding paragraph with supernatants removed and assayed for VEGF levels by ELISA following the 4 hour incubation."}, "[3]": {"system": "human dental pulp stromal cells", "experiment": "Apoptosis of human dental pulp stromal cells, NAC versus vitamin E, 4 hours", "details": "HEMA (0.0082M), vitamin E (5 mM)", "protocol": "as §1"}}}
{"compound": "N.N.[Cl][Pt][Cl]", "note": "[CDDP, Cis-diaminedichloroplatinum (II)]", "values": [{"measurement": "cells remained both PI and Annexin V negative", "setting": "PBMCs", "value": 80, "unit": "%"}, {"measurement": "active caspase 3 staining", "setting": "active caspase 3", "value": 22, "unit": "%"}]}
{"compound": "O=C1O[C@H]([C@@H](O)CO)C(O)=C1O", "note": "[ascorbic acid]", "values": [{"measurement": "reversal of apoptosis induced by HEMA", "setting": "[1]", "value": "did not reverse apoptosis induced by HEMA"}]}
{"compound": "CC[C@@]1(O)C(=O)OCc2c1cc1n(c2=O)Cc2cc3ccccc3nc2-1", "note": "[camptothecin]", "values": [{"measurement": "levels of full length caspase 3 (processing of caspase 3)", "setting": "Caspase 3", "value": "moderate effect in processing of caspase 3"}]}
{"compound": "Vitamin E [Vit E]", "values": [{"measurement": "VEGF levels by ELISA, Human dental pulp stromal cells", "setting": "[2]; no HEMA, NAC (20 mM) and/or vitamin E (5 mM)", "value": 1966.2}, {"measurement": "prevention of HEMA mediated decrease in VEGF secretion", "setting": "[2]; vitamin E (5 mM)", "value": "failed to prevent the HEMA mediated decrease in VEGF secretion"}, {"measurement": "inhibition of HEMA mediated cell death", "setting": "[3]", "value": "failed to inhibit HEMA mediated cell death"}]}
